For one test, the system named is phospho-GSK-3β. In words: GSK 3b assay: Zn ionophore-enhanced phosphorylation of GSK-3β (AlphaScreen SureFire Phospho-GSK 3β (Ser9) kit) in SH-SY5Y cells. The conditions noted are these: test compound 2 μM + ZnCl2 5 μM, 2 h at 37° C. Format: cell-based, human. The protocol:
The phosphorylation of GSK-3β is enhanced when Zn is imported into a cell by a Zn ionophore. This property was measured for the compounds of the current invention and the data presented relative to the know Zn ionophore PBT2 using the following protocol.
The human neuroblastoma SH-SY5Y cells were obtained from Cell bank Australia (Catalogue number: 94030304). SH-SY5Y cell culture was maintained in DMEM/F12+15% FBS inside an incubator at 37° C. in the presence of 5% CO2. The cells were sub-cultured once a week and the media exchanged once during the week. Cells for the assay were plated at a density of 60,000 cells/well.
Stock solutions of the samples were prepared as a 5 mM stock in DMSO and a stock solution of 1 mM ZnCl2/3 mM Glutamic acid was prepared in water. Immediately before use the compounds were diluted 1:10 with water before being added to Locke's buffer in a treatment tube. Samples were subsequently treated with either distilled water or the ZnCl2/Glutamic acid solution to yield a treatment solution which has a final concentration of the test compound at 2 μM+/−ZnCl2 at 5 μM.
The culture media was aspirated from the wells and the media replaced with the treatment solution prepared above. In addition to the relative standard (PBT2+/−ZnCl2), control wells were also included consisting of +/−ZnCl2 at 5 μM with all treatments done in triplicate. The plate was incubated at 37° C. with the treatment solution for 2 h after which time the wells were aspirated and washed with sterile PBS.
Measurement of the change of phospho-GSK-3β was determined using an AlphaScreen® SureFire® Phospho-GSK […] (Ser9) Kit with the cells being processed as per the manufacturer's instructions using an initial incubation of 2 h/24° C. and a final incubation of 16 h/24° C.
The fluorescence was measured on an Enspire plate reader. […] Representative data is presented in Table 12 using the following ranges: A<50%, B 50-<100%, C 100-<150%, D>150%.

The next test deals with BE(2)-M17 (M17) cells. In words: Method I: Measurement of Fe efflux from cells (57Fe-loaded, ICP-MS of media). Type of test: cell-based, human. The conditions noted are these: M17 cells loaded with 20 μM 57Fe, compound 20 μM, 2 h; for activation at 20 µM: Homo sapiens, read-out: Fe-Efflux (% increase of Fe in media relative to cell media in the absence of the compound). As for the experimental part: Method I: Measurement of Fe Efflux from Cells
Compounds of the current invention were assessed for their ability to efflux iron (Fe) from a cell using the following protocol.
The human neuroblastoma line BE(2)-M17 (M17) cell cultures were acquired from Sigma Aldrich (Catalogue #: 95011816). M17 Cells were maintained in Opti-MEM reduced serum media supplemented with 10% fetal bovine serum (Bovogen, SFBSF) and passaged twice weekly. Cells were cultured at 37° C. in the presence of 5% CO2. Culture supplies were sourced from Thermo Fisher unless otherwise stated.
A solution of ^57Fe cold isotope was prepared by dissolving ^57Fe metal (>95% enrichment, Trace Sciences International) in concentrated HCl to give a final concentration of 573 mM. From this master solution, a 10 mM working solution was prepared in sterile water. The working solution was used within two months of preparation.
M17 cells were loaded with iron initially by seeding into 48-well plates at a density of 0.15×10^6 cells per well in 0.5 mL media. After 48 h, old media was discarded. Fresh media was supplemented with 20 μM ^57Fe isotope, from the 10 mM ^57Fe working solution. Cells received 0.2 mL of this ^57Fe enriched media and were returned to the incubator for 20 h. The ability of experimental compounds to efflux iron was determined by the dissolution of compounds in DMSO and diluted in Hanks' Balanced Salt Solution (HBSS) for treatment of M17 cells. After ^57Fe incubation, cells were rinsed twice with HBSS and treated with 0.15 mL trial compound for 2 h at a concentration of 20 μM. All assays included a relevant vehicle (0.4%-0.8% DMSO) as well as a positive control (20 μM). Following the treatment period, 0.1 mL of media was collected from cells and the extracellular ^57Fe content was analysed via inductively coupled mass spectrometry (ICP-MS, Agilent 7700x series instrument).
To perform this protocol the following supplies were purchased from Sigma Aldrich: anhydrous dimethyl sulfoxide (DMSO, Catalogue #: 276855), Hanks' Balanced Salt Solution supplemented with 20 mM HEPES and 4.2 mM Sodium Bicarbonate (HBSS, pH: 7.4, Catalogue #: H1387).
After 2 h the Fe levels in the media were measured and the increase determined as a percentage increase relative to the cell media in the absence of the compound.
Representative data is provided in Table 13 where the % Fe efflux for the specified compounds of the invention lie in the following ranges: A<30%, B 30-100%, C 100-150%; D>150%.

As to `Cc1nnsc1C(=O)N/N=C(/c1ncccn1)C(C)C` [Compound 52], the “GSK-Zn (signal as % of the positive standard PBT2+ZnCl2)” value in the test on phospho-GSK-3β is “B (B 50-<100%)”. Moreover, in the test with BE(2)-M17 (M17) cells, the activation at 20 µM lay in the range of 30 to 100%.

Turning to `COc1cccc(C(=O)N/N=C(/c2ncccn2)C(C)C)c1` [Compound 50], the “GSK-Zn (signal as % of the positive standard PBT2+ZnCl2)” value with phospho-GSK-3β is recorded as “C (C 100-<150%)”. For the same compound, the activation at 20 µM with BE(2)-M17 (M17) cells is less than 30%.

As for `COc1ccccc1C(=O)N/N=C1\CCCc2cccnc21` [Compound 8], in the test with phospho-GSK-3β, the “GSK-Zn (signal as % of the positive standard PBT2+ZnCl2)” value is reported as “A (A<50%)”. Moreover, the activation at 20 µM in the test with BE(2)-M17 (M17) cells is 100 to 150%.

Consider `O=C(N/N=C1\CCCc2cccnc21)c1ccccc1` [Compound 10], for which the “GSK-Zn (signal as % of the positive standard PBT2+ZnCl2)” value in the test on phospho-GSK-3β is “B (B 50-<100%)”. The activation at 20 µM in the test with BE(2)-M17 (M17) cells is 30 to 100%.

With `COc1cccc(C(=O)N/N=C2\CCCc3cccnc32)c1` [Compound 6], in the test with phospho-GSK-3β, the “GSK-Zn (signal as % of the positive standard PBT2+ZnCl2)” value is on record as “A (A<50%)”. Moreover, the activation at 20 µM in the test on BE(2)-M17 (M17) cells is less than 30%.

`O=C(N/N=C1\CCCc2cccnc21)c1cccnc1` [Compound 1, (E)-N′-(6,7-Dihydroquinolin-8(5H)-ylidene)nicotinohydrazide]: the “GSK-Zn (signal as % of the positive standard PBT2+ZnCl2)” value in the test on phospho-GSK-3β is recorded as “A (A<50%)”. The activation at 20 µM with BE(2)-M17 (M17) cells was more than 150%.

Regarding `COC(=O)CN(/N=C(\C)c1ccccn1)C(=O)c1cc2ccccc2s1` [Compound 147, (E)-Methyl 2-(1-(benzo[b]thiophene-2-carbonyl)-2-(1-(pyridin-2-yl)ethylidene) hydrazinyl) Acetate], the “Fe-Efflux (% increase of Fe in media relative to cell media in the absence of the compound)” value with BE(2)-M17 (M17) cells was “A (A<30%)”.

Consider `Cc1nnsc1C(=O)N/N=C1\CCCc2cccnc21` [Compound 23], for which, in the test on phospho-GSK-3β, the “GSK-Zn (signal as % of the positive standard PBT2+ZnCl2)” value is “C (C 100-<150%)”. Also, in the test on BE(2)-M17 (M17) cells, the activation at 20 µM was more than 150%.

`COc1ccccc1C(=O)N/N=C(\C)c1cc(C)ccn1` [Compound 55]: the activation at 20 µM in the test on BE(2)-M17 (M17) cells lay in the range of 30 to 100%.

In the case of `C/C(=N\NC(=O)c1cc2c(s1)-c1ccccc1OC2)c1nc(C)cs1` [Compound 101], in the test on BE(2)-M17 (M17) cells, the activation at 20 µM is less than 30%.

In the case of `CCOc1ccccc1C(=O)N/N=C1\CCCc2cccnc21` [Compound 4], in the test with phospho-GSK-3β, the “GSK-Zn (signal as % of the positive standard PBT2+ZnCl2)” value is listed as “A (A<50%)”. In addition, the activation at 20 µM in the test on BE(2)-M17 (M17) cells was 30 to 100%.

For `O=C(N/N=C/c1cn2ccccc2n1)c1cc2ccccc2s1` [Compound 138], the activation at 20 µM with BE(2)-M17 (M17) cells was less than 30%.

Take `Cc1nc(C)c(C(=O)N/N=C2\CCCc3cccnc32)s1` [Compound 32]: the activation at 20 µM in the test on BE(2)-M17 (M17) cells fell in the range of 100 to 150%.

`O=C(N/N=C1\CCOc2cccnc21)c1cccnc1` [Compound 171, (E)-N′-(2,3-dihydro-4H-pyrano[3,2-b]pyridin-4-ylidene)nicotinohydrazide]: the activation at 20 µM with BE(2)-M17 (M17) cells was less than 30%.

In the case of `COc1cccc(C(=O)N/N=C(\C)c2ncccn2)c1` [Compound 47], the “GSK-Zn (signal as % of the positive standard PBT2+ZnCl2)” value with phospho-GSK-3β is recorded as “C (C 100-<150%)”. The activation at 20 µM in the test on BE(2)-M17 (M17) cells lay within 30 to 100%.

Turning to `Cc1ccc(C(=O)N/N=C/c2nccn2C)cn1` [Compound 117], the activation at 20 µM with BE(2)-M17 (M17) cells is less than 30%.

As to `Cc1cc(C(=O)N/N=C2\CCCc3cccnc32)no1` [Compound 33], the activation at 20 µM in the test on BE(2)-M17 (M17) cells is more than 150%.

Consider `C/C(=N\NC(=O)c1cccc(C)c1)c1ncccn1` [Compound 49], for which the “GSK-Zn (signal as % of the positive standard PBT2+ZnCl2)” value in the test with phospho-GSK-3β was “B (B 50-<100%)”. Besides, the activation at 20 µM with BE(2)-M17 (M17) cells is more than 150%.

With `O=C(N/N=C1\CCCc2cccnc21)c1ccccc1OCCCN1CCCCC1` [Compound 42], in the test on BE(2)-M17 (M17) cells, the activation at 20 µM is more than 150%.

`O=C(N/N=C1\CCOc2cccnc21)c1cccs1` [Compound 178]: the activation at 20 µM in the test on BE(2)-M17 (M17) cells lay in the range of 100 to 150%.

On to `C/C(=N\NC(=O)c1cccc(C)c1)c1nccnc1C` [Compound 58], for which, in the test with BE(2)-M17 (M17) cells, the activation at 20 µM was less than 30%.

Turning to `C/C(=N\NC(=O)c1snnc1C)c1nccnc1C` [Compound 57], the activation at 20 µM with BE(2)-M17 (M17) cells lay in the range of 100 to 150%.

For the compound `CCOC(=O)C1CCc2cccnc2/C1=N/NC(=O)c1snnc1C` (centres unmarked) [Compound 31], the activation at 20 µM with BE(2)-M17 (M17) cells lay within 30 to 100%.

Turning to `Cc1nnsc1C(=O)N/N=C1\CCOc2cccnc21` [Compound 172], the activation at 20 µM in the test on BE(2)-M17 (M17) cells lay within 100 to 150%.

For `O=C(N/N=C1\CCCc2cccnc21)c1ccccc1OCCN1CCCCC1` [Compound 40], in the test with BE(2)-M17 (M17) cells, the activation at 20 µM is more than 150%.

The values above are taken from patent publication US11603364B2, “Acyl hydrazone derivative compounds for treating disease” (Alterity Therapeutics Limited, priority 2020, dated 2023).
